# Experimental data as given in publication PMC5218480 (PLoS ONE, 2017).
# System: MV-4-11 cells
# Assay: Gene expression microarray analysis (Affymetrix PrimeView) and GSEA
# Assay type: cell-based, human
# Design: RFU PODN (11730768_x_at) / Fold change /veh PODN (11730768_x_at) / RFU LINC00158 (11744669_a_at) / Fold change /veh LINC00158 (11744669_a_at) / RFU DUSP10 (11751237_a_at) / Fold change /veh DUSP10 (11751237_a_at) / RFU ID3 (11757404_x_at) / Fold change /veh ID3 (11757404_x_at) / RFU PLEKHG5 (11737974_s_at) / Fold change /veh PLEKHG5 (11737974_s_at) / RFU LRRC4B (11730491_at) / Fold change /veh LRRC4B (11730491_at) / RFU GIMAP4 (11747438_a_at) / Fold change /veh GIMAP4 (11747438_a_at) / RFU KRT8 (11758183_x_at) / Fold change /veh KRT8 (11758183_x_at) / RFU CNN1 (11734310_a_at) / Fold change /veh CNN1 (11734310_a_at) / RFU VPS37D (11726825_at) / Fold change /veh VPS37D (11726825_at) / RFU C10orf10 (11716522_x_at) / Fold change /veh C10orf10 (11716522_x_at) / RFU KIR2DL2 /// KIR2DL4 /// KIR2DL5A /// KIR2DL5B /// KIR2DS1 /// KIR2DS2 /// KIR2DS3 /// KIR2DS4 /// KIR3DL3 /// KIR3DL3 /// KIR3DS1 (11738374_at) / Fold change /veh KIR2DL2 /// KIR2DL4 /// KIR2DL5A /// KIR2DL5B /// KIR2DS1 /// KIR2DS2 /// KIR2DS3 /// KIR2DS4 /// KIR3DL3 /// KIR3DL3 /// KIR3DS1 (11738374_at) / RFU C1QL1 (11718748_at) / Fold change /veh C1QL1 (11718748_at) / RFU TMPRSS4 (11747572_a_at) / Fold change /veh TMPRSS4 (11747572_a_at) / RFU HAMP (11756126_x_at) / Fold change /veh HAMP (11756126_x_at) / RFU RNFT2 (11725882_a_at) / Fold change /veh RNFT2 (11725882_a_at) / RFU NR4A2 (11747474_a_at) / Fold change /veh NR4A2 (11747474_a_at) / RFU ABCC12 (11746883_a_at) / Fold change /veh ABCC12 (11746883_a_at) / RFU TMEM136 (11760407_x_at) / Fold change /veh TMEM136 (11760407_x_at) / RFU CLDN22 /// WWC2 (11732394_at) / Fold change /veh CLDN22 /// WWC2 (11732394_at) / RFU HLA-DPB1 (11760878_x_at) / Fold change /veh HLA-DPB1 (11760878_x_at) / RFU SPINT1 (11716480_a_at) / Fold change /veh SPINT1 (11716480_a_at) / RFU GAP43 (11754022_s_at) / Fold change /veh GAP43 (11754022_s_at) / RFU A4GNT (11735810_at) / Fold change /veh A4GNT (11735810_at) / RFU PRB3 (11715151_x_at) / Fold change /veh PRB3 (11715151_x_at) / RFU TUBB4B (11761932_at) / Fold change /veh TUBB4B (11761932_at) / RFU CAPN14 (11732068_a_at) / Fold change /veh CAPN14 (11732068_a_at) / RFU TMCC2 (11721928_a_at) / Fold change /veh TMCC2 (11721928_a_at) / RFU IRGQ (11745062_a_at) / Fold change /veh IRGQ (11745062_a_at) / RFU FAM174B (11720279_a_at) / Fold change /veh FAM174B (11720279_a_at) / RFU TMPRSS4 (11748680_a_at) / Fold change /veh TMPRSS4 (11748680_a_at) / RFU FAM212B (11763350_a_at) / Fold change /veh FAM212B (11763350_a_at) / RFU PLEKHG5 (11743358_a_at) / Fold change /veh PLEKHG5 (11743358_a_at) / RFU ZSCAN30 (11745921_a_at) / Fold change /veh ZSCAN30 (11745921_a_at) / RFU CMKLR1 (11741424_a_at) / Fold change /veh CMKLR1 (11741424_a_at) / RFU LOC101060620 /// MAPK8IP1 (11723275_at) / Fold change /veh LOC101060620 /// MAPK8IP1 (11723275_at) / RFU SPTSSB (11747773_x_at) / Fold change /veh SPTSSB (11747773_x_at) / RFU PRSS12 (11739890_at) / Fold change /veh PRSS12 (11739890_at) / RFU BIN1 (11741810_x_at) / Fold change /veh BIN1 (11741810_x_at) / RFU WNT11 (11732464_a_at) / Fold change /veh WNT11 (11732464_a_at) / RFU C10orf10 (11716521_a_at) / Fold change /veh C10orf10 (11716521_a_at) / RFU C5orf56 (11738089_at) / Fold change /veh C5orf56 (11738089_at) / RFU CYB561 (11721691_x_at) / Fold change /veh CYB561 (11721691_x_at) / RFU ANKRD19P (11752326_a_at) / Fold change /veh ANKRD19P (11752326_a_at) / RFU OR2T12 /// OR2T33 /// OR2T8 (11738714_s_at) / Fold change /veh OR2T12 /// OR2T33 /// OR2T8 (11738714_s_at) / RFU VCAN (11748164_a_at) / Fold change /veh VCAN (11748164_a_at) / RFU JSRP1 (11732532_at) / Fold change /veh JSRP1 (11732532_at) / RFU KRTAP10-11 (11738290_x_at) / Fold change /veh KRTAP10-11 (11738290_x_at) / RFU MYO3A (11730013_a_at) / Fold change /veh MYO3A (11730013_a_at) / RFU EBF3 (11725865_a_at) / Fold change /veh EBF3 (11725865_a_at) / RFU CAMK2N1 (11719241_x_at) / Fold change /veh CAMK2N1 (11719241_x_at) / RFU C5orf56 (11738088_a_at) / Fold change /veh C5orf56 (11738088_a_at) / RFU OLFML3 (11715873_a_at) / Fold change /veh OLFML3 (11715873_a_at) / RFU LOC100653217 /// NTM (11731650_a_at) / Fold change /veh LOC100653217 /// NTM (11731650_a_at) / RFU MAPK11 (11762145_a_at) / Fold change /veh MAPK11 (11762145_a_at) / RFU FIZ1 (11724087_x_at) / Fold change /veh FIZ1 (11724087_x_at) / RFU OASL (11726364_x_at) / Fold change /veh OASL (11726364_x_at) / RFU SOX15 (11748057_x_at) / Fold change /veh SOX15 (11748057_x_at) / RFU CD79A (11719716_a_at) / Fold change /veh CD79A (11719716_a_at) / RFU HIST1H1D (11736915_at) / Fold change /veh HIST1H1D (11736915_at) / RFU CASKIN2 (11723855_a_at) / Fold change /veh CASKIN2 (11723855_a_at) / RFU LOC730098 (11760151_x_at) / Fold change /veh LOC730098 (11760151_x_at) / RFU OR4N2 (11742367_at) / Fold change /veh OR4N2 (11742367_at) / RFU PRRT2 (11749266_a_at) / Fold change /veh PRRT2 (11749266_a_at) / RFU SNX32 (11753110_a_at) / Fold change /veh SNX32 (11753110_a_at) / RFU CDHR5 (11726645_a_at) / Fold change /veh CDHR5 (11726645_a_at) / RFU RCAN1 (11760418_a_at) / Fold change /veh RCAN1 (11760418_a_at) / RFU FAM167A (11723789_a_at) / Fold change /veh FAM167A (11723789_a_at) / RFU FAM26E (11764081_at) / Fold change /veh FAM26E (11764081_at) / RFU ISYNA1 (11749810_s_at) / Fold change /veh ISYNA1 (11749810_s_at) / RFU ACY1 (11761880_at) / Fold change /veh ACY1 (11761880_at) / RFU 11764098_at / Fold change /veh 11764098_at / RFU SAMD14 (11745864_x_at) / Fold change /veh SAMD14 (11745864_x_at) / RFU NPB (11741838_a_at) / Fold change /veh NPB (11741838_a_at) / RFU TMPRSS6 (11731388_a_at) / Fold change /veh TMPRSS6 (11731388_a_at) / RFU KRTAP10-2 (11738614_at) / Fold change /veh KRTAP10-2 (11738614_at) / RFU ARHGAP8 /// PRR5-ARHGAP8 (11727945_x_at) / Fold change /veh ARHGAP8 /// PRR5-ARHGAP8 (11727945_x_at) / RFU KRTAP5-7 /// NADSYN1 (11734609_at) / Fold change /veh KRTAP5-7 /// NADSYN1 (11734609_at) / RFU RASL12 (11751679_a_at) / Fold change /veh RASL12 (11751679_a_at) / RFU CDKN2B (11736163_a_at) / Fold change /veh CDKN2B (11736163_a_at) / RFU PRF1 (11729649_at) / Fold change /veh PRF1 (11729649_at) / RFU, ZNF638 /// ZNF638-IT1 / Fold change vs veh, ZNF638 /// ZNF638-IT1 / RFU, PANK3 / Fold change vs veh, PANK3 / RFU, SH3YL1 / Fold change vs veh, SH3YL1 / RFU, ZEB2 / Fold change vs veh, ZEB2 / RFU, NRIP1 / Fold change vs veh, NRIP1 / RFU, PTTG1IP / Fold change vs veh, PTTG1IP / RFU, CAPN2 / Fold change vs veh, CAPN2 / RFU, MED14 / Fold change vs veh, MED14 / RFU, SNORA58 / Fold change vs veh, SNORA58 / RFU, C1orf63 / Fold change vs veh, C1orf63 / RFU, LRRFIP1 / Fold change vs veh, LRRFIP1 / RFU, NDUFAF7 / Fold change vs veh, NDUFAF7 / RFU, SLC12A2 / Fold change vs veh, SLC12A2 / RFU, IBTK / Fold change vs veh, IBTK / RFU, ESF1 / Fold change vs veh, ESF1 / Fold change vs veh, TMEM50B / RFU, TAOK1 / Fold change vs veh, TAOK1 / RFU, ACBD3 / Fold change vs veh, ACBD3 / RFU, TMA16 / Fold change vs veh, TMA16 / RFU, RWDD3 / Fold change vs veh, RWDD3 / RFU, BCAT1 / Fold change vs veh, BCAT1 / RFU, EDEM3 / Fold change vs veh, EDEM3 / RFU, TMEM33 / Fold change vs veh, TMEM33 / RFU, WDR75 / Fold change vs veh, WDR75 / RFU, AHCTF1 / Fold change vs veh, AHCTF1 / RFU, TFRC / Fold change vs veh, TFRC / RFU, ZDHHC17 / Fold change vs veh, ZDHHC17 / RFU, NOM1 / Fold change vs veh, NOM1 / RFU, ARL8B / Fold change vs veh, ARL8B / RFU, ZBTB11 / Fold change vs veh, ZBTB11 / RFU, TAMM41 / Fold change vs veh, TAMM41 / RFU, KIAA1704 /// LOC100996395 / Fold change vs veh, KIAA1704 /// LOC100996395 / RFU, ING1 / Fold change vs veh, ING1 / RFU, TRMT61B / Fold change vs veh, TRMT61B / RFU, FUBP3 / Fold change vs veh, FUBP3 / RFU, TP53 / Fold change vs veh, TP53 / RFU, TNKS2 / Fold change vs veh, TNKS2 / RFU, ZFP14 / Fold change vs veh, ZFP14 / RFU, ACTR2 / Fold change vs veh, ACTR2 / RFU, PPP3R1 / Fold change vs veh, PPP3R1 / RFU, PIK3R1 / Fold change vs veh, PIK3R1 / RFU, HNRNPA1 / Fold change vs veh, HNRNPA1 / RFU, RNF170 / Fold change vs veh, RNF170 / RFU, ZNF28 / Fold change vs veh, ZNF28 / RFU, RNGTT / Fold change vs veh, RNGTT / RFU, OGT / Fold change vs veh, OGT / RFU, BRD1 / Fold change vs veh, BRD1 / RFU, MARS / Fold change vs veh, MARS / RFU, ZNF655 / Fold change vs veh, ZNF655 / RFU, FAHD1 / Fold change vs veh, FAHD1 / RFU, BDP1 / Fold change vs veh, BDP1 / RFU, LRRCC1 / Fold change vs veh, LRRCC1 / RFU, ARID1A / Fold change vs veh, ARID1A / RFU, ZNF146 / Fold change vs veh, ZNF146 / RFU, ZNF330 / Fold change vs veh, ZNF330 / RFU, GPN3 / Fold change vs veh, GPN3 / RFU, C9orf123 / Fold change vs veh, C9orf123 / RFU, N4BP2L2 / Fold change vs veh, N4BP2L2 / RFU, ARFIP1 / Fold change vs veh, ARFIP1 / RFU, FAM179B / Fold change vs veh, FAM179B / RFU, BCL10 / Fold change vs veh, BCL10 / RFU, UHRF1BP1L / Fold change vs veh, UHRF1BP1L / RFU, BET1 / Fold change vs veh, BET1 / RFU, CNOT2 / Fold change vs veh, CNOT2 / RFU, ZNF268 / Fold change vs veh, ZNF268 / Fold change vs veh, ZNF507 / RFU, DGCR2 / Fold change vs veh, DGCR2 / RFU, WDSUB1 / Fold change vs veh, WDSUB1 / Fold change vs veh, HSP90B1 /// MIR3652 / RFU, ADSS / Fold change vs veh, ADSS / RFU, GK / Fold change vs veh, GK / RFU, ZNF148 / Fold change vs veh, ZNF148 / RFU, TAF9 / Fold change vs veh, TAF9 / RFU, SLC1A5 / Fold change vs veh, SLC1A5 / RFU, SLMO2 / Fold change vs veh, SLMO2 / RFU, ABCC4 / Fold change vs veh, ABCC4 / RFU, LOC101060439 /// RAP1B / Fold change vs veh, LOC101060439 /// RAP1B / RFU, RFX7 / Fold change vs veh, RFX7 / RFU, GTPBP10 / Fold change vs veh, GTPBP10 / RFU, CNEP1R1 / Fold change vs veh, CNEP1R1 / RFU, BIVM-ERCC5 /// ERCC5 / Fold change vs veh, BIVM-ERCC5 /// ERCC5 / RFU, ILF3 / Fold change vs veh, ILF3 / RFU 11762660_at / Fold change /veh 11762660_at / RFU VCAN (11757783_s_at) / Fold change /veh VCAN (11757783_s_at) / RFU DDX43 (11728927_at) / Fold change /veh DDX43 (11728927_at) / RFU KRT8 (11758188_x_at) / Fold change /veh KRT8 (11758188_x_at) / RFU NKD1 (11759106_at) / Fold change /veh NKD1 (11759106_at) / RFU SRD5A1 (11742802_a_at) / Fold change /veh SRD5A1 (11742802_a_at) / RFU TPSAB1 /// TPSB2 (11721975_s_at) / Fold change /veh TPSAB1 /// TPSB2 (11721975_s_at) / RFU GSTM3 (11746129_a_at) / Fold change /veh GSTM3 (11746129_a_at) / RFU IL23R (11737362_x_at) / Fold change /veh IL23R (11737362_x_at) / RFU TMEM51 (11727254_a_at) / Fold change /veh TMEM51 (11727254_a_at) / RFU PIWIL2 (11732686_x_at) / Fold change /veh PIWIL2 (11732686_x_at) / RFU ORM1 (11744905_x_at) / Fold change /veh ORM1 (11744905_x_at) / RFU CCDC152 (11743942_at) / Fold change /veh CCDC152 (11743942_at) / RFU ECM1 (11717891_a_at) / Fold change /veh ECM1 (11717891_a_at) / RFU IL23R (11748794_a_at) / Fold change /veh IL23R (11748794_a_at) / RFU TNFAIP8L3 (11732012_x_at) / Fold change /veh TNFAIP8L3 (11732012_x_at) / RFU MBOAT4 (11741988_at) / Fold change /veh MBOAT4 (11741988_at) / RFU 11764193_at / Fold change /veh 11764193_at / RFU TMEM53 (11763286_at) / Fold change /veh TMEM53 (11763286_at) / RFU MAGEB2 (11727129_at) / Fold change /veh MAGEB2 (11727129_at) / RFU TMEM200A (11744735_a_at) / Fold change /veh TMEM200A (11744735_a_at) / RFU CCDC152 (11751479_a_at) / Fold change /veh CCDC152 (11751479_a_at) / RFU FAM211A (11726209_a_at) / Fold change /veh FAM211A (11726209_a_at) / RFU RGS16 (11746705_a_at) / Fold change /veh RGS16 (11746705_a_at) / RFU VCAN (11755009_s_at) / Fold change /veh VCAN (11755009_s_at) / RFU RHOB (11743442_s_at) / Fold change /veh RHOB (11743442_s_at) / RFU RGS16 (11720943_a_at) / Fold change /veh RGS16 (11720943_a_at) / RFU RGS16 (11720944_at) / Fold change /veh RGS16 (11720944_at) / RFU, VPS4B / Fold change vs veh, VPS4B / RFU, CREB1 / Fold change vs veh, CREB1 / RFU, DNAJC13 / Fold change vs veh, DNAJC13 / RFU, GNAQ / Fold change vs veh, GNAQ / RFU, CDK5R1 / Fold change vs veh, CDK5R1 / RFU, ZRANB3 / Fold change vs veh, ZRANB3 / RFU, CUL4A / Fold change vs veh, CUL4A / RFU, CCNY / Fold change vs veh, CCNY / RFU, UFL1 / Fold change vs veh, UFL1 / RFU, COG3 / Fold change vs veh, COG3 / RFU, DIAPH2 / Fold change vs veh, DIAPH2 / RFU, SKA2 / Fold change vs veh, SKA2 / RFU, AFF3 / Fold change vs veh, AFF3 / RFU, LMF1 / Fold change vs veh, LMF1 / RFU, IPO11 / Fold change vs veh, IPO11 / RFU, DFFB / Fold change vs veh, DFFB / RFU, FOXP1 / Fold change vs veh, FOXP1 / RFU, CARD8 / Fold change vs veh, CARD8 / RFU, STRN3 / Fold change vs veh, STRN3 / RFU, ADK / Fold change vs veh, ADK / RFU, RASSF2 / Fold change vs veh, RASSF2 / RFU, WIPF1 / Fold change vs veh, WIPF1 / RFU, LARP1B / Fold change vs veh, LARP1B / RFU, RASA1 / Fold change vs veh, RASA1 / RFU, RB1 / Fold change vs veh, RB1 / RFU, PPFIA1 / Fold change vs veh, PPFIA1 / RFU, MAT2A / Fold change vs veh, MAT2A / RFU, CCT5 / Fold change vs veh, CCT5 / RFU, WDR92 / Fold change vs veh, WDR92 / RFU, CUX1 / Fold change vs veh, CUX1 / RFU, TTC7A / Fold change vs veh, TTC7A / RFU, TMEM135 / Fold change vs veh, TMEM135 / RFU, DEPTOR / Fold change vs veh, DEPTOR / RFU, CPM / Fold change vs veh, CPM / RFU, DNAJB6 / Fold change vs veh, DNAJB6 / RFU, CACNA2D3 / Fold change vs veh, CACNA2D3 / RFU, DTX4 / Fold change vs veh, DTX4 / RFU, TFCP2 / Fold change vs veh, TFCP2 / RFU, GMCL1 /// GMCL1P1 / Fold change vs veh, GMCL1 /// GMCL1P1 / RFU, AEBP2 / Fold change vs veh, AEBP2 / RFU, SNHG1 /// SNORD22 /// SNORD25 /// SNORD26 /// SNORD27 /// SNORD28 /// SNORD29 /// SNORD31 / Fold change vs veh, SNHG1 /// SNORD22 /// SNORD25 /// SNORD26 /// SNORD27 /// SNORD28 /// SNORD29 /// SNORD31 / Fold change (Aza/veh), C12orf56 (ProbeSet 11735607_a_at) / Fold change (ACY-1035/veh), C12orf56 (ProbeSet 11735607_a_at) / Fold change (Aza/veh), FGFR1OP (ProbeSet 11751329_s_at) / Fold change (ACY-1035/veh), FGFR1OP (ProbeSet 11751329_s_at) / Fold change (Aza/veh), VPS36 (ProbeSet 11739960_a_at) / Fold change (ACY-1035/veh), VPS36 (ProbeSet 11739960_a_at) / RFU SYPL1 (11715823_x_at) / Fold change /veh SYPL1 (11715823_x_at) / RFU IGFBP7 (11715501_s_at) / Fold change /veh IGFBP7 (11715501_s_at) / RFU REEP3 (11722064_at) / Fold change /veh REEP3 (11722064_at) / RFU IGLL1 (11728026_x_at) / Fold change /veh IGLL1 (11728026_x_at): dose or concentration left out as unconfirmed
# Details: MV-4-11 cells, 48 hours
compound,measurement,value
Nc1ncn([C@@H]2O[C@H](CO)[C@@H](O)[C@H]2O)c(=O)n1 [azacitidine],Fold change /veh SPINT1 (11716480_a_at),1.00
